From ChEMBL document CHEMBL1201862, “PubChem BioAssay data set” (2004)
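Five compound concentrations were applied to cells in 96-well plates for 48 hours; endpoints were derived by simple linear interpolation of the resulting dose-response curve. GI50: concentration for 50% inhibition of growth.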 The source made the active and inactive calls. Cut-off read from the data, not from the text of the source: active = GI50 up to about 1.1 µM and inactive = higher.

Tests used:
Assay in all cases: DTP human tumour cell line panel, 48 h
[1] = test system: TK-10
[2] = test system: SW-620
[3] = test system: RPMI-8226
[4] = test system: U-251
[5] = test system: OVCAR-4
[6] = test system: UACC-257
[7] = test system: EKVX
[8] = test system: SNB-19
[9] = test system: HL-60
[10] = test system: UACC-62
[11] = test system: SF-295
[12] = test system: IGROV-1
[13] = test system: OVCAR-5
[14] = test system: M14
[15] = test system: CCRF-CEM
[16] = test system: HCC 2998

Measured: GI50

CCOC(=O)C(=O)C(C#N)c1ccc(Cl)cc1 (centres undefined)
inactive: [1] > 100 µM | [2] > 100 µM | [3] > 100 µM | [4] > 100 µM | [5] > 100 µM | [6] > 100 µM | [7] > 100 µM | [8] > 100 µM | [9] > 100 µM | [10] > 100 µM | [11] > 100 µM | [12] > 100 µM | [13] > 100 µM | [14] > 100 µM

CC(=O)NC1=C(NCc2ccc(Cl)cc2)C(=O)c2ccccc2C1=O
inactive: [1] 8.24 µM | [2] 7 µM | [4] 6.7 µM | [5] 6.85 µM | [15] 8.53 µM | [6] 6.17 µM | [7] 7.62 µM | [8] 22.6 µM | [16] 27.5 µM | [9] 1.39 µM | [10] 2.61 µM | [11] 13.3 µM | [12] 11.3 µM | [14] 7.01 µM

N#Cc1cccc(/C=N/N/C(N)=N/O)c1
inactive: [1] 37.6 µM | [2] > 100 µM | [4] 59.6 µM | [5] 20.9 µM | [15] 57.7 µM | [6] > 100 µM | [7] 9.18 µM | [8] > 100 µM | [9] 15.2 µM | [10] 13 µM | [11] > 100 µM | [12] 24.2 µM | [13] > 100 µM | [14] 41.4 µM

c1ccc(C(c2ccccc2)c2cccnc2)cc1
inactive: [1] > 100 µM | [2] > 100 µM | [3] 46.1 µM | [4] > 100 µM | [5] > 100 µM | [15] > 100 µM | [6] > 100 µM | [7] 99.5 µM | [8] > 100 µM | [16] > 100 µM | [10] > 100 µM | [11] > 100 µM | [12] > 100 µM | [13] > 100 µM | [14] > 100 µM

N#Cc1c2nc3ccccc3nc2n2ccc3ccccc3c12
inactive: [1] > 100 µM | [3] > 100 µM | [4] > 100 µM | [5] > 100 µM | [15] > 100 µM | [6] > 100 µM | [7] > 100 µM | [8] > 100 µM | [16] > 100 µM | [9] > 100 µM | [11] > 100 µM | [12] > 100 µM | [13] > 100 µM | [14] > 100 µM

O=C(O)c1ccccc1/N=C/c1ccc(N(CCCl)CCCl)cc1
inactive: [2] > 100 µM | [3] > 100 µM | [4] 78 µM | [5] > 100 µM | [15] > 80.7 µM | [6] > 78 µM | [7] 64.1 µM | [8] > 100 µM | [16] > 100 µM | [9] 29.4 µM | [10] 5.74 µM | [11] > 100 µM | [12] > 100 µM | [13] > 100 µM

COc1cc2ccc(CC#N)cc2cc1OC
inactive: [1] > 100 µM | [2] > 100 µM | [4] > 100 µM | [5] 93.5 µM | [15] > 100 µM | [6] > 100 µM | [7] 83.8 µM | [8] > 100 µM | [9] > 100 µM | [11] > 100 µM | [13] > 100 µM

Cc1cc(C)nc(NS(=O)(=O)c2ccc(NC(=O)c3ccc(Cl)c4c(Nc5ccc(S(=O)(=O)N=C(N)N)cc5)c5ccccc5nc34)cc2)n1
inactive: [1] 33.9 µM | [2] 17.4 µM | [3] 28.1 µM | [4] 34.8 µM | [5] 59.2 µM | [6] 51.8 µM | [7] > 100 µM | [8] > 100 µM | [16] 29.1 µM | [9] 3.72 µM | [10] 36.3 µM | [11] > 100 µM | [12] 63.8 µM | [13] > 100 µM | [14] > 100 µM

CCCCN(CCCC)c1c([N+](=O)[O-])c(=O)nc2ccccn12
inactive: [1] 46.9 µM | [2] 36.2 µM | [3] 33.4 µM | [4] 38.8 µM | [15] 44.6 µM | [7] 32.8 µM | [8] 72.9 µM | [10] 36.7 µM | [12] > 100 µM | [13] 99.3 µM | [14] 27.9 µM

N=C(N)NS(=O)(=O)c1ccc(NCCc2c3ccccc3nc3ccccc23)cc1
inactive: [1] > 100 µM | [2] > 100 µM | [3] 7.26 µM | [4] > 100 µM | [5] 1.31 µM | [15] 94 µM | [6] 52.5 µM | [7] > 100 µM | [8] > 100 µM | [16] > 100 µM | [9] 19.4 µM | [11] > 100 µM | [12] > 100 µM | [13] > 100 µM | [14] > 100 µM

CC[C@H](C)[C@H]1NC(=O)C(C(C)=O)=C1O
inactive: [1] > 100 µM | [2] 21.4 µM | [4] 52.7 µM | [5] 95.9 µM | [15] 52.2 µM | [6] 51.6 µM | [7] > 100 µM | [8] 78.3 µM | [16] 54 µM | [9] 99.8 µM | [10] 97.5 µM | [11] > 100 µM | [12] > 100 µM | [13] > 100 µM | [14] > 100 µM

Brc1ccc2[nH]c3c(C4=NCCC4)nccc3c2c1
inactive: [2] 21.3 µM | [3] 9.27 µM | [4] 12.5 µM | [5] 17.1 µM | [15] 10.4 µM | [6] 16.9 µM | [7] 13 µM | [8] 21.7 µM | [16] 12.2 µM | [9] 5.79 µM | [10] 9.73 µM | [11] 10.6 µM | [12] 18.7 µM | [13] 6.11 µM

COc1ccc(O)c(C#N)c1C#N.COc1ccc(OC)c(C#N)c1C#N
inactive: [2] > 100 µM | [3] > 100 µM | [4] > 100 µM | [5] > 100 µM | [15] > 100 µM | [6] > 100 µM | [7] 23.7 µM | [8] > 100 µM | [16] > 100 µM | [9] > 100 µM | [10] > 100 µM | [11] > 100 µM | [12] > 100 µM | [13] > 100 µM

CC(C)=CC1C(C(=O)O)C1(C)C (centres undefined) [CHRYSANTHEMIC ACID]
inactive: [2] > 750 µM | [3] > 750 µM | [4] > 750 µM | [5] > 750 µM | [15] > 750 µM | [6] > 750 µM | [7] > 750 µM | [8] > 750 µM | [16] > 750 µM | [9] > 750 µM | [10] > 750 µM | [11] > 750 µM | [12] > 750 µM | [13] > 750 µM
